Reference: ChEMBL document CHEMBL2094260, “Malaria Box Tuberculosis Screening Data”

Each molecule was assayed on Mycobacterium tuberculosis (assay: MMV: Screen against Mtb, single point, non replicating, at 25uM).
Assay type: functional

SMILES | inhibition at 25 µM [%]
CC1CC2=C(CC1CNCCCN(C)C)C(C)(C)CCC2 (configuration not stated) | -0.993
O=C(CCc1ccco1)NC1CCN(CC2(c3ccc(Cl)cc3)CCC2)CC1 | 20.8
COc1ccc(-n2ccnc2SCC(=O)Nc2cc(C)ccc2C)c(OC)c1 | 8.89
O=C(NC1CCCCC1)C(c1cccs1)N(CCc1ccccc1)C(=O)c1ccco1 (configuration not stated) | 2.2
COc1cccc(C2(C)Nc3ccccc3-c3nc4ccccc4n32)c1 (configuration not stated) | 8.19
C=CCc1c(C)nc2ccccc2c1O | 1.56
CCOC(=O)C1CCN(C(=O)CN2C(=O)c3ccccc3C2c2c[nH]c3ccccc23)CC1 (configuration not stated) | 8.89
O=C(NCc1ccco1)C1CCN(S(=O)(=O)c2ccc(Cl)cc2)CC1 | 12.4
CCOc1ccc(CCNC(=O)c2cccs2)cc1OCC | 15
CCCCc1ccc(NS(=O)(=O)c2cc3c4c(c2)CCN4C(=O)CC3)cc1 | -2.45
CCN1CCCC1CNc1[nH]cnc2c3cc(Cl)ccc3nc1-2 (configuration not stated) | 4.53
COc1ccc(C(=O)C2CC2c2ccc(Cl)cc2)cc1 (configuration not stated) | -5.07
CCCCc1c(C)nc2c(OC)cccc2c1O | 6.62
COc1ccc(CN2CCCC(C(=O)c3ccc(C(F)(F)F)cc3)C2)c(O)c1 (configuration not stated) | 1.85
CN(C)CCNc1cc(-c2ccccc2)nc2ccccc12 | 6.45
COc1ccc(NC(=O)C2c3ccccc3C(=O)N(CC(C)C)C2c2cccs2)cc1Cl (configuration not stated) | 22.2
COc1ccc(N2CCN(C(CNC(=O)CC(C)(C)C)c3ccc4c(c3)OCO4)CC2)cc1 (configuration not stated) | -8.45
CCOC(=O)c1c(C)n(-c2ccc(Cl)cc2)c2ccc(OC(=O)C=Cc3ccccc3)cc12 | 18.8
COc1cc(OC)c(N(C)C(=O)c2cc3c(s2)-c2ccccc2S(=O)(=O)C3)cc1Cl | 6.97
CN(C)c1ccc(N2C(N)=NC(N)=NC2(C)C)cc1 | 1.21
COc1ccc(C(=O)NC(c2ccc(Cl)cc2Cl)c2cc(Cl)c3cccnc3c2O)cc1 (configuration not stated) | -4.19

SMILES | inhibition at 25 µM [%]
CCOc1cc2c(cc1OCC)C(c1cc(Cl)ccc1O)NCC2 (configuration not stated) | -6.67
COc1ccc(C)c2sc(N(Cc3cccnc3)C(=O)c3ccc(C#N)cc3)nc12 | 23.9
COc1ccc(C2Sc3ccccc3N=C3C2=C(O)c2ccccc23)cc1 (configuration not stated) | -1.58
O=C(NNc1cc(N2CCCC2)nc(N2CCCC2)n1)c1ccccc1 | 30.6
O=C(Nc1cccc(-c2nc3ccccc3[nH]2)c1)c1cccc(NC(=O)c2ccco2)c1 | 46.1
CCN(CC)CCNc1ccnc2cc(Cl)ccc12 | 18.3
Cc1cc(NC(=O)C2c3ccccc3C(=O)N(CC(C)C)C2c2cccs2)no1 (configuration not stated) | 13.1
O=c1nc(C=Cc2ccc(Cl)cc2)oc2ccccc12 | 7.84
O=C(CCc1ccccc1)c1ccccc1OCC(O)CN1CCCCC1 (configuration not stated) | 0.25
CCOc1ccc2c(c1)CN(Cc1ccc(Cl)cc1)CO2 | 20.5
CC(C)(C)c1ccc(O)c(CNC2CCCCC2)c1 | 16.6
Cc1ccc(N2C3c4ccccc4N(S(=O)(=O)c4ccc(C)cc4)C2c2ccccc2N3S(=O)(=O)c2ccc(C)cc2)cc1 | 18
c1ccc(-c2ccc(-c3nc4ccccc4[nH]3)cc2)cc1 | 0.513
CCOC(=O)c1cnc2ccc(CC)cc2c1O | 7.14
COc1cccc(C(=O)NC(c2ccc(C)cc2)c2cc(Cl)c3cccnc3c2O)c1 (configuration not stated) | 14.3
Oc1ccccc1CN1CCN(C(c2ccccc2)c2ccccc2)CC1 | 28.8
Cc1ccc(F)cc1NC(=O)c1cc(Cl)ccc1Nc1ccccc1 | 28.5
CCc1ccc(CNCC(O)c2ccccc2)cc1 (configuration not stated) | 4.33
O=C(Nc1cccc(C2=NCCN2)c1)Nc1cccc(C2=NCCN2)c1 [IMIDOCARB] | 11.1
COc1cc(OC)cc(N2C(=O)N(Cc3ccc(C(C)(C)C)cc3)c3ccccc3S2(=O)=O)c1 | 13.6

The molecules below were run on Mycobacterium tuberculosis (assay: MMV: Screen against Mtb, single point, replicating, at 25uM).
Assay type: functional

SMILES | inhibition at 25 µM [%]
CC1CC2=C(CC1CNCCCN(C)C)C(C)(C)CCC2 (configuration not stated) | 42.2
O=C(CCc1ccco1)NC1CCN(CC2(c3ccc(Cl)cc3)CCC2)CC1 | 31.6
COc1ccc(-n2ccnc2SCC(=O)Nc2cc(C)ccc2C)c(OC)c1 | 2.95
O=C(NC1CCCCC1)C(c1cccs1)N(CCc1ccccc1)C(=O)c1ccco1 (configuration not stated) | 22.2
COc1cccc(C2(C)Nc3ccccc3-c3nc4ccccc4n32)c1 (configuration not stated) | 14.9
C=CCc1c(C)nc2ccccc2c1O | 15.2
CCOC(=O)C1CCN(C(=O)CN2C(=O)c3ccccc3C2c2c[nH]c3ccccc23)CC1 (configuration not stated) | 4.16
O=C(NCc1ccco1)C1CCN(S(=O)(=O)c2ccc(Cl)cc2)CC1 | 46.4
CCOc1ccc(CCNC(=O)c2cccs2)cc1OCC | 30
CCCCc1ccc(NS(=O)(=O)c2cc3c4c(c2)CCN4C(=O)CC3)cc1 | 7.2
CCN1CCCC1CNc1[nH]cnc2c3cc(Cl)ccc3nc1-2 (configuration not stated) | 0.0616
COc1ccc(C(=O)C2CC2c2ccc(Cl)cc2)cc1 (configuration not stated) | 17.5
CCCCc1c(C)nc2c(OC)cccc2c1O | 26.3
COc1ccc(CN2CCCC(C(=O)c3ccc(C(F)(F)F)cc3)C2)c(O)c1 (configuration not stated) | 35.3
CN(C)CCNc1cc(-c2ccccc2)nc2ccccc12 | 6.89
COc1ccc(NC(=O)C2c3ccccc3C(=O)N(CC(C)C)C2c2cccs2)cc1Cl (configuration not stated) | -1.46
COc1ccc(N2CCN(C(CNC(=O)CC(C)(C)C)c3ccc4c(c3)OCO4)CC2)cc1 (configuration not stated) | 0.0784
CCOC(=O)c1c(C)n(-c2ccc(Cl)cc2)c2ccc(OC(=O)C=Cc3ccccc3)cc12 | 25.1
COc1cc(OC)c(N(C)C(=O)c2cc3c(s2)-c2ccccc2S(=O)(=O)C3)cc1Cl | 38
CN(C)c1ccc(N2C(N)=NC(N)=NC2(C)C)cc1 | 2.64
COc1ccc(C(=O)NC(c2ccc(Cl)cc2Cl)c2cc(Cl)c3cccnc3c2O)cc1 (configuration not stated) | 3.06

SMILES | inhibition at 25 µM [%]
CCOc1cc2c(cc1OCC)C(c1cc(Cl)ccc1O)NCC2 (configuration not stated) | 7.45
COc1ccc(C)c2sc(N(Cc3cccnc3)C(=O)c3ccc(C#N)cc3)nc12 | 9.48
COc1ccc(C2Sc3ccccc3N=C3C2=C(O)c2ccccc23)cc1 (configuration not stated) | 8.41
O=C(NNc1cc(N2CCCC2)nc(N2CCCC2)n1)c1ccccc1 | 12
O=C(Nc1cccc(-c2nc3ccccc3[nH]2)c1)c1cccc(NC(=O)c2ccco2)c1 | 21.2
CCN(CC)CCNc1ccnc2cc(Cl)ccc12 | 4.01
Cc1cc(NC(=O)C2c3ccccc3C(=O)N(CC(C)C)C2c2cccs2)no1 (configuration not stated) | 12.2
O=c1nc(C=Cc2ccc(Cl)cc2)oc2ccccc12 | 46.8
O=C(CCc1ccccc1)c1ccccc1OCC(O)CN1CCCCC1 (configuration not stated) | 12.9
CCOc1ccc2c(c1)CN(Cc1ccc(Cl)cc1)CO2 | 16.1
CC(C)(C)c1ccc(O)c(CNC2CCCCC2)c1 | 38.8
Cc1ccc(N2C3c4ccccc4N(S(=O)(=O)c4ccc(C)cc4)C2c2ccccc2N3S(=O)(=O)c2ccc(C)cc2)cc1 | 4.16
c1ccc(-c2ccc(-c3nc4ccccc4[nH]3)cc2)cc1 | 20.6
CCOC(=O)c1cnc2ccc(CC)cc2c1O | 12.5
COc1cccc(C(=O)NC(c2ccc(C)cc2)c2cc(Cl)c3cccnc3c2O)c1 (configuration not stated) | 10.4
Oc1ccccc1CN1CCN(C(c2ccccc2)c2ccccc2)CC1 | 33.3
Cc1ccc(F)cc1NC(=O)c1cc(Cl)ccc1Nc1ccccc1 | 6.66
CCc1ccc(CNCC(O)c2ccccc2)cc1 (configuration not stated) | 35.5
O=C(Nc1cccc(C2=NCCN2)c1)Nc1cccc(C2=NCCN2)c1 [IMIDOCARB] | 5.56
COc1cc(OC)cc(N2C(=O)N(Cc3ccc(C(C)(C)C)cc3)c3ccccc3S2(=O)=O)c1 | 2.59
